# Experimental data published in patent US20110186731A1, “LCMS TECHNOLOGY AND ITS USES” (priority 2008, published 2011).
# Entries after “also recorded” stand apart in the source; their conditions may differ. Read-outs that look alike come from different tables or passages of the source.
# Key:
# MB71.5 T cells = assay: PorA specific human proliferation assay with MB71.5 T cells; format: cell-based; settings: FIG. 17A; region 4 18-mer peptides
# Description: (§1) For P.69 Pertactin specific human proliferation assays, 10^5 PBMC were incubated in complete medium at 150 µl/well in the absence or presence of the relevant peptide(s), at 1 or 10 μM at 37° C. in a 5% CO2 atmosphere. For PorA specific human proliferation assays, 10^5 PBMC or 2×10^4 MB71.5 T cells were incubated in complete medium at 150 μl/well in the absence or presence of the relevant peptide(s), peptide pool or PorAs rP1.7-2.4, P1.5-2.10, P1.7.16, P1.19.15, or P1.22.14 at the indicated concentrations at 37° C. in a 5% CO2 atmosphere. At day 4, 100-μl volumes were removed for the cytokine determinations. Then 0.5 μCi (18.5 kBq) ^3H-thymidine (Amersham, USA) was added to the culture 18 hours before harvesting the cells. Determination of CPM and calculation of the results were performed as for the proliferation assay of immune splenocytes. Results are expressed as SI±SD from at least triplicate wells. The region 4 specific T cell line MB71.5 was generated by repetitive in vitro restimulation of MB71 PBMC with 0.5 μg/ml rP1.5-2.1 in complete medium.
# [1] = system: Balb/c and C57black/6 mice; assay: Murine immunization with PorA and splenocyte proliferation assay; format: in vivo, mouse; settings: splenocytes from Balb/c mice immunized with P1.5-1, 2-2; data not shown
# HLA-A2 [2] = biological target: T1, HLA-A2 (Homo sapiens, UniProt P04439, D140Y/D185E/D98H/E176V/E277Q/G131W/G231S/I119V/I121R/I166T/I218V/L300P/L318F/N151K/N90K/P208A/P217A/Q86G/Q94H/R138H/R169H/T345S); format: cell-based; settings: MV-infected WH cells, HLA-A2 ligands, standard LCMS
# HLA-A2 [3] = biological target: T1, HLA-A2; format: cell-based; settings: human MDDC, HLA-A2 ligandome; from intensity ratio of native and singly labelled epitope
# PBMC = assay: P.69 Pertactin specific human proliferation assay (in vitro restimulation of PBMC with synthetic peptides); format: cell-based; settings: PBMC from a panel of healthy adult donors, synthetic standards
# Description: as §1
# We investigated the immunogenicity of the two Bordetella pertussis P.69 Pertactin epitope regions in humans by in vitro restimulation of PBMC from a panel of healthy adult donors with synthetic standards representing the epitopes.
# [4] = approach A (subtractive analysis)
sequence,measurement,setting,value
"PEFSGFSGSVQFVPAQNS [S011-24, synthetic 18-mer, P1.5-2.10 region 4 variant]",Proliferation of MB71.5 T cells with autologous PBMC pulsed with synthetic peptides,MB71.5 T cells,proliferated; also recorded: recognizing
same,Response of splenocytes to region 4 peptides,[1],responded
"SGSVQFVPAQNSKSAYTP [S011-25, synthetic 18-mer, P1.5-2.10 region 4 variant]",Proliferation of MB71.5 T cells with autologous PBMC pulsed with synthetic peptides,MB71.5 T cells,proliferated; also recorded: recognizing
same,Response of splenocytes to region 4 peptides,[1],responded
KLWESPQEI [SEQ ID NO: 4],Abundance (copies/cell),HLA-A2 [2]; approach B (isotope labelling),85 copies/cell
KLWESPQEI [SEQ ID NO: 1],Abundance (copies/cell),HLA-A2 [2]; [4],">100,000 copies/cell"
same,Abundance (copies/cell),"HLA-A2 [2]; approach A (subtractive analysis), listed as MV-C84-92","> 100,000 copies/cell"
GLASFILTI [SEQ ID NO: 6],Abundance (copies/cell),HLA-A2 [2]; approach B (isotope labelling),150 copies/cell
VVSEVDIAKAD (listed as Homo sapiens) [SEQ ID NO: 52],degree of upregulation due to the influenza virus infection,HLA-A2 [3],16
LMIDRPYVL [SEQ ID NO: 3],Abundance (copies/cell),HLA-A2 [2]; [4],150 copies/cell
QLPEATFMV (listed as Measles virus) [SEQ ID NO: 2],Abundance (copies/cell),HLA-A2 [2]; [4],"1,500 copies/cell"
ASTLWYAESNALSKRLG,immune recognition observed in donors,PBMC,at least 2 donors
